From patent publication US20260265222A1, “1H-PYRROLE-2-AMIDE DERIVATIVE, PHARMACEUTICAL COMPOSITION AND METHOD FOR TREATING AND/OR PREVENTING YTHDC1-RELATED DISEASES” (priority 2023, published 2026)

target: T1, GST-YTHDC1 (345-509) protein (Homo sapiens, UniProt Q96MU7); assay: Fluorescence polarization-based in vitro enzyme-level test against YTHDC1; type: binding; conditions: 30 nM GST-YTHDC1 (345-509), FAM-labeled m6A-modified single-stranded oligonucleotide, 18° C., 4 hours; read-out: IC50 (Inhibitory Activity against YTHDC1)
T1 construct: GST-YTHDC1 (345-509) protein

Row | SMILES | IC50 [µM]
1 | O=C(Nc1cccnc1)c1cc(C(=O)c2ccccc2C(F)(F)F)c[nH]1 [Compound 2] | 0.8
2 | O=C(Nc1cccnc1)c1cc(C(=O)c2c(F)cc(F)cc2Br)c[nH]1 [Compound 3] | > 50
3 | O=C(Nc1cccnc1)c1cc(C(=O)c2c(Br)ccc(F)c2F)c[nH]1 [Compound 4] | > 50
4 | O=C(Nc1cccnc1)c1cc(C(=O)c2ccccc2Br)c[nH]1 [Compound 5] | 1.78
5 | O=C(c1ccccc1)c1c[nH]c(C(=O)Nc2cccnc2)c1 [Compound 6] | > 50
6 | O=C(Nc1cccnc1)c1cc(C(=O)c2ccccc2F)c[nH]1 [Compound 7] | > 50
7 | O=C(Nc1cccnc1)c1cc(C(=O)c2ccccc2Cl)c[nH]1 [Compound 8] | 2.84
8 | COc1ccccc1C(=O)c1c[nH]c(C(=O)Nc2cccnc2)c1 [Compound 9] | 10.6
9 | CC(C)(C)c1ccccc1C(=O)c1c[nH]c(C(=O)Nc2cccnc2)c1 [Compound 10] | 2.01
10 | CCc1ccccc1C(=O)c1c[nH]c(C(=O)Nc2cccnc2)c1 [Compound 11] | 1.57
11 | O=C(Nc1ccccc1)c1cc(C(=O)c2ccccc2C(F)(F)F)c[nH]1 [Compound 12] | 0.12
12 | O=C(Nc1ccccc1F)c1cc(C(=O)c2ccccc2C(F)(F)F)c[nH]1 [Compound 13] | 0.612
13 | O=C(Nc1cccc(F)c1)c1cc(C(=O)c2ccccc2C(F)(F)F)c[nH]1 [Compound 14] | 0.248
14 | O=C(Nc1ccc(F)cc1)c1cc(C(=O)c2ccccc2C(F)(F)F)c[nH]1 [Compound 15] | 0.105
15 | O=C(Nc1ccc(Br)cc1)c1cc(C(=O)c2ccccc2C(F)(F)F)c[nH]1 [Compound 16] | 0.041
16 | O=C(Nc1ccc(OC(F)(F)F)cc1)c1cc(C(=O)c2ccccc2C(F)(F)F)c[nH]1 [Compound 17] | 0.042
17 | O=C(Nc1ccc(C(F)(F)F)cc1)c1cc(C(=O)c2ccccc2C(F)(F)F)c[nH]1 [Compound 18] | 0.039
18 | CC(=O)c1ccc(NC(=O)c2cc(C(=O)c3ccccc3C(F)(F)F)c[nH]2)cc1 [Compound 19] | 0.031
19 | CCOC(=O)c1ccc(NC(=O)c2cc(C(=O)c3ccccc3C(F)(F)F)c[nH]2)cc1 [Compound 20] | 0.023

Row | SMILES | IC50 [µM]
20 | O=C(Nc1ccc(-c2ccccc2)cc1)c1cc(C(=O)c2ccccc2C(F)(F)F)c[nH]1 [Compound 21] | 0.071
21 | O=C(Nc1ccc(-c2ccccn2)cc1)c1cc(C(=O)c2ccccc2C(F)(F)F)c[nH]1 [Compound 22] | 0.023
22 | O=C(Nc1ccc(-c2cccnc2)cc1)c1cc(C(=O)c2ccccc2C(F)(F)F)c[nH]1 [Compound 23] | 0.047
23 | O=C(Nc1ccc(-c2ccncc2)cc1)c1cc(C(=O)c2ccccc2C(F)(F)F)c[nH]1 [Compound 24] | 0.012
24 | O=C(Nc1ccc(-c2ccoc2)cc1)c1cc(C(=O)c2ccccc2C(F)(F)F)c[nH]1 [Compound 25] | 0.036
25 | O=C(Nc1ccc(-c2ccsc2)cc1)c1cc(C(=O)c2ccccc2C(F)(F)F)c[nH]1 [Compound 26] | 0.064
26 | O=C(Nc1ccc(-c2cnc[nH]2)cc1)c1cc(C(=O)c2ccccc2C(F)(F)F)c[nH]1 [Compound 27] | 0.023
27 | Cn1nc(C(F)(F)F)cc1-c1ccc(NC(=O)c2cc(C(=O)c3ccccc3C(F)(F)F)c[nH]2)cc1 [Compound 30] | 0.53
28 | N#Cc1ccc(-c2ccc(NC(=O)c3cc(C(=O)c4ccccc4C(F)(F)F)c[nH]3)cc2)s1 [Compound 31] | 0.015
29 | Cc1ncc(-c2ccc(NC(=O)c3cc(C(=O)c4ccccc4C(F)(F)F)c[nH]3)cc2)s1 [Compound 32] | 0.011
30 | Cc1ncsc1-c1ccc(NC(=O)c2cc(C(=O)c3ccccc3C(F)(F)F)c[nH]2)cc1 [Compound 33] | 0.012
31 | O=C(Nc1ccc(-c2cnc(N3CC(F)C3)s2)cc1)c1cc(C(=O)c2ccccc2C(F)(F)F)c[nH]1 [Compound 34] | 0.022
32 | O=C(Nc1ccc(-c2cnc(N3CC(F)(F)C3)s2)cc1)c1cc(C(=O)c2ccccc2C(F)(F)F)c[nH]1 [Compound 35] | 0.424
33 | O=C(Nc1ccc(-c2cnc(N3CCCC3)s2)cc1)c1cc(C(=O)c2ccccc2C(F)(F)F)c[nH]1 [Compound 36] | 0.013
34 | O=C(Nc1ccc(-c2cnc(N3CCCCC3)s2)cc1)c1cc(C(=O)c2ccccc2C(F)(F)F)c[nH]1 [Compound 37] | 0.335
35 | O=C(Nc1ccc(-c2cnc(N3CCOCC3)s2)cc1)c1cc(C(=O)c2ccccc2C(F)(F)F)c[nH]1 [Compound 38] | 0.017
36 | O=C(c1ccc(C(F)(F)F)cc1)c1c[nH]c(C(=O)Nc2ccc(-c3cncs3)cc2)c1 [Compound 39] | > 50
37 | O=C(Nc1ccc(-c2cncs2)cc1)c1cc2c(ncn2-c2ccccc2C(F)(F)F)[nH]1 [Compound 42] | 0.18

Further lines, results first:

Row | IC50 [µM] | SMILES
38 | 0.01 | O=C(Nc1ccc(-c2cnco2)cc1)c1cc(C(=O)c2ccccc2C(F)(F)F)c[nH]1 [Compound 28]
39 | > 50 | CC(C)n1nccc1-c1nccc2[nH]c(C(=O)Nc3ccc(-c4cncs4)cc3)cc12 [Compound 40]
40 | 0.192 | O=C(Nc1ccc(-c2cncs2)cc1)c1cc2c(-c3ccccc3C(F)(F)F)nccc2[nH]1 [Compound 41]
41 | 3.9 | N#Cc1ccccc1-c1nccc2[nH]c(C(=O)Nc3ccc(-c4cncs4)cc3)cc12 [Compound 43]
42 | 0.138 | O=C(Nc1ccc(-c2cncs2)cc1)c1cc2c(-c3ccccc3OC(F)(F)F)nccc2[nH]1 [Compound 44]
43 | > 50 | O=C(Nc1ccc(-c2cncs2)cc1)c1cc2c(-c3ccccc3CO)nccc2[nH]1 [Compound 45]
44 | > 50 | COc1cnccc1-c1nccc2[nH]c(C(=O)Nc3ccc(-c4cncs4)cc3)cc12 [Compound 46]
45 | > 50 | O=C(Nc1ccc(-c2cncs2)cc1)c1cc2c(-c3ccccc3)nccc2[nH]1 [Compound 47]
46 | > 50 | O=C(Nc1ccc(-c2cncs2)cc1)c1cc2c(-c3ccc(C(F)(F)F)cc3C(F)(F)F)nccc2[nH]1 [Compound 48]
47 | > 50 | O=C(Nc1ccc(-c2cncs2)cc1)c1cc2c(-c3ccncc3C(F)(F)F)nccc2[nH]1 [Compound 49]
48 | 0.067 | CS(=O)(=O)c1ccccc1-c1nccc2cc(C(=O)Nc3ccc(-c4cncs4)cc3)[nH]c12 [Compound 50]
49 | > 50 | CC(=O)c1ccccc1-c1nccc2[nH]c(C(=O)Nc3ccc(-c4cncs4)cc3)cc12 [Compound 51]
50 | 0.66 | CS(=O)(=O)Nc1ccccc1-c1nccc2[nH]c(C(=O)Nc3ccc(-c4cncs4)cc3)cc12 [Compound 52]
51 | > 50 | O=C(Nc1ccc(-c2cncs2)cc1)c1cc2c(-c3ccccc3F)nccc2[nH]1 [Compound 53]
52 | > 50 | O=C(Nc1ccc(-c2cncs2)cc1)c1cc2c(-c3c[nH]nc3C(F)(F)F)nccc2[nH]1 [Compound 54]
53 | 0.278 | O=C(Nc1ccc(-c2cncs2)cc1)c1cc2c(-c3ccccc3[N+](=O)[O-])nccc2[nH]1 [Compound 55]
54 | 0.928 | O=C(Nc1ccc(-c2cncs2)cc1)c1cc2c(-c3ccccc3N3CCOCC3)nccc2[nH]1 [Compound 56]
55 | > 50 | CC(C)(C)NS(=O)(=O)c1ccccc1-c1nccc2[nH]c(C(=O)Nc3ccc(-c4cncs4)cc3)cc12 [Compound 57]
56 | 0.08 | CS(=O)(=O)c1ccccc1-c1ncc(F)c2[nH]c(C(=O)Nc3ccc(-c4cncs4)cc3)cc12 [Compound 58]
57 | > 50 | O=C(Nc1ccc(-c2cncs2)cc1)c1cc2c(-c3ccccc3OC(F)(F)F)c(F)ccc2[nH]1 [Compound 59]

Row | IC50 [µM] | SMILES
58 | 2.51 | CN(C)c1ccccc1-c1nccc2[nH]c(C(=O)Nc3ccc(-c4cncs4)cc3)cc12 [Compound 61]
59 | 0.28 | CS(=O)(=O)c1ccccc1-c1nccc2[nH]c(C(=O)Nc3ccc(-c4cnco4)cc3)cc12 [Compound 62]
60 | 0.394 | O=C(Nc1ccc(-c2cncs2)cc1)c1cc2c(-c3ccccc3OC(F)F)nccc2[nH]1 [Compound 63]
61 | 1.13 | O=C(Nc1ccc(-c2cncs2)cc1)c1cc2c(-c3ccccc3-c3ccccc3)nccc2[nH]1 [Compound 64]
62 | 11.2 | CSc1ccccc1-c1nccc2[nH]c(C(=O)Nc3ccc(-c4cncs4)cc3)cc12 [Compound 65]
63 | > 50 | O=C(Nc1ccc(-c2cncs2)cc1)c1cc2c(-c3ccccc3C3CC3)nccc2[nH]1 [Compound 66]
64 | > 50 | O=C(Nc1ccc(-c2cncs2)cc1)c1cc2c(-c3ccccc3OC3CC3)nccc2[nH]1 [Compound 67]
65 | 1.67 | CCSc1ccccc1-c1nccc2[nH]c(C(=O)Nc3ccc(-c4cncs4)cc3)cc12 [Compound 68]
66 | 0.373 | CS(=O)(=O)c1ccccc1-c1cccc2[nH]c(C(=O)Nc3ccc(-c4cncs4)cc3)cc12 [Compound 69]
67 | 2.28 | CS(=O)(=O)c1ccccc1-c1ccnc2[nH]c(C(=O)Nc3ccc(-c4cncs4)cc3)cc12 [Compound 70]
68 | > 50 | CN(C)c1ncc(-c2ccc(NC(=O)c3cc4c(-c5ccccc5S(C)(=O)=O)nccc4[nH]3)cc2)o1 [Compound 71]
69 | 36.5 | CS(=O)(=O)c1ccccc1-c1nccc2[nH]c(C(=O)Nc3ccc(-c4ccccc4)cc3)cc12 [Compound 72]
70 | 6.27 | CS(=O)(=O)c1ccccc1-c1nccc2[nH]c(C(=O)Nc3ccc(-c4ccncc4)cc3)cc12 [Compound 73]
71 | > 50 | CS(=O)(=O)c1ccccc1-c1nccc2[nH]c(C(=O)Nc3ccc(-c4cncnc4)cc3)cc12 [Compound 74]
72 | 0.0085 | CN(C)c1ncc(-c2ccc(NC(=O)c3cc(C(=O)c4ccccc4C(F)(F)F)c[nH]3)cc2)o1 [Compound 75]
73 | 5.04 | CCN(CCNc1ncc(-c2ccc(NC(=O)c3cc(C(=O)c4ccccc4C(F)(F)F)c[nH]3)cc2)o1)C(=O)OC(C)(C)C [Compound 76]
74 | 0.067 | O=C(Nc1ccc(-c2cnc(N3CCOCC3)o2)cc1)c1cc(C(=O)c2ccccc2C(F)(F)F)c[nH]1 [Compound 77]
75 | 0.123 | O=C(Nc1ccc(-c2cnc(N3CCOCC3)o2)cc1)c1cc(C(=O)c2ccccc2Br)c[nH]1 [Compound 78]
76 | 0.088 | CN1CCN(c2ncc(-c3ccc(NC(=O)c4cc(C(=O)c5ccccc5C(F)(F)F)c[nH]4)cc3)o2)CC1 [Compound 79]
